In patent publication US20260193236A1 (Protego Biopharma, Inc., priority 2022, published 2026) one finds activation data, which are given here for 58 molecules.

For this assay, the system named is IRE1-XBP1s (XBP1-RLuc splicing reporter in HEK293 T-REx cells). Description: IRE1-XBP1s activation assay (XBP1-RLuc splicing reporter, HEK293 T-REx cells, luminescence relative to thapsigargin). The conditions noted are these: 18 h, read-out: Activity (IRE1-XBP1s activation, luminescence as % signal relative to thapsigargin, % Tg). In kind it is cell-based. How it is done:
IRE1-XBP1s activation Assay: HEK293 T-REx cells stably expressing the XBP1-RLuc splicing reporter were treated with an IRE1-XBP1s activator provided herein (10 μM) in the presence or absence of the IRE1 active site inhibitor 4μ8C (32 μM) for 18 h. Luminescence was shown as the percentage signal relative to thapsigargin (Tg) (500 nM, 18 h).

Setting [1] is: compound 10 μM, HEK293 T-REx XBP1-RLuc reporter cells, relative to thapsigargin (Tg) 500 nM.

Like-named read-outs stand apart in the source and are kept apart here. A value given as a limit tells only on which side of the number the result lay.

Regarding `Cc1ccc(OCCN(C)C(=O)Cn2cc(NC(=O)CCNc3ncc(C#N)cn3)cn2)cc1` [Compound 125], the activation at 10 µM under setting [1] was less than 30%.
On the same count and under the same terms, in the case of `[2H]C([2H])([2H])c1ccc(OCCN(C)C(=O)Cn2cc(NC(=O)CCOc3ccc(C)cc3F)cn2)cc1` [Compound 91] it was 30 to 50%; in that of `CNc1ccnc(OCCC(=O)Nc2cnn(CC(=O)N(C)CCOc3ccc(C)cc3)c2)n1` [Compound 216], less than 30%.
The same measure, in the same setting: in the case of `Cc1ccc(OCCN(C)C(=O)Cn2cc(NC(=O)CCNc3ccc(Cl)cn3)cn2)cc1` [Compound 129] it was less than 30%.
`Cc1ccc(OCCN(C)C(=O)Cn2cc(NC(=O)C(C)(C)COc3ccccc3)cn2)cc1` [Compound 37, 2,2-dimethyl-N-(1-(2-(methyl(2-(p-tolyloxy)ethyl)amino)-2-oxoethyl)-1H-pyrazol-4-yl)-3-phenoxypropanamide]: the activation at 10 µM is less than 30%.
In the case of `Cc1ccc(OCCN(C)C(=O)Cn2cc(NC(=O)OC3CCCN(c4ccnc(F)n4)C3)cn2)cc1` (stereo not shown) [Compound 201], the activation at 10 µM under setting [1] was less than 30%.
As for `Cc1ccc(OC[C@@H](C)N(C)C(=O)Cn2cc(NC(=O)CCOc3c(F)cccc3F)cn2)cc1` [Compound 82], the activation at 10 µM under setting [1] was greater than 50%.
Same read-out and setting: the value for `COc1ccc(OCCN(C)C(=O)Cn2cc(NC(=O)CCNc3ccnc(OC)c3)cn2)cc1` [Compound 169] was greater than 50%.
Same read-out and setting: the value for `Cc1ccc(OCCN(C)C(=O)Cn2cc(NC(=O)CCNc3ccnc(N)n3)cn2)cc1` [Compound 158] was less than 30%; that for `CC(=O)c1cncc(F)c1NCCC(=O)Nc1cnn(CC(=O)N(C)CCOc2ccc(C)cc2)c1` [Compound 232] was greater than 50%; that for `COC(=O)Nc1cccc(NCCC(=O)Nc2cnn(CC(=O)N(C)CCOc3ccc(C)cc3)c2)n1` [Compound 253] was less than 30%.
Same read-out and setting: the value for `COc1ncc(C(F)(F)F)cc1NCCC(=O)Nc1cnn(CC(=O)N(C)CCOc2ccc(C)cc2)c1` [Compound 187] was 30 to 50%; that for `Cc1ccc(OCC(C)(C)N(C)C(=O)Cn2cc(NC(=O)CCNc3ccnc(F)n3)cn2)cc1` [Compound 256] was greater than 50%; that for `Cc1ccc(OCCN(C)C(=O)Cn2cc(NC(=O)CCNc3cccnc3C)cn2)cc1` [Compound 174] was 30 to 50%.
For the molecule `CC(C)c1cncc(F)c1OCCC(=O)Nc1cnn(CC(=O)N(C)CCOc2ccc(OC(F)(F)F)cn2)c1` [Compound 279], the activation at 10 µM under setting [1] was greater than 50%.
On the same count and under the same terms, in the case of `Cc1ccc(OCCN(C)C(=O)Cn2cc(NC(=O)CCOc3cccc(NC(=O)OC(C)(C)C)n3)cn2)cc1` [Compound 102] it was greater than 50%.
On the same count and under the same terms, in the case of `C=C(C)c1cncc(F)c1NCCC(=O)Nc1cnn(CC(=O)N(C)CCOc2ccc(C)cc2)c1` [Compound 254] it was greater than 50%.
Still for that read-out and setting: the value for `Cc1ccc(OCCN(C)C(=O)Cn2cc(NC(=O)CCNc3ncc(C)cn3)cn2)cc1` [Compound 93] was less than 30%.
For `Cc1ccc(OCCN(C)C(=O)Cn2cc(NC(=O)CCOc3ccncc3)cn2)cc1` [Compound 9], under setting [1], the activation at 10 µM is greater than 50%.
Same read-out and setting: in the case of `Cc1ccc(OCCN(C)C(=O)Cn2cc(NC(=O)CCOc3ccc(F)cc3C)c(C)n2)cc1` [Compound 65] it was less than 30%.
In the case of `COc1cccc(OCCN(C)C(=O)Cn2cc(NC(=O)CCOc3ccc(C)cc3F)cn2)c1` [Compound 74], the activation at 10 µM under setting [1] was less than 30%.
As for `COc1ccccc1OCCC(=O)Nc1cnn(CC(=O)N(C)CCOc2ccc(C)cc2)c1` [Compound 28], the activation at 10 µM under setting [1] is greater than 50%.
Still for that read-out and setting: the value for `C#CCCC1(CCC(=O)Nc2ccc(OCCC(=O)Nc3cnn(CC(=O)N(C)CCOc4ccc(C)cc4)c3)nc2)N=N1` [Compound 234] was greater than 50%; that for `Cc1ccc(OCCN(C)C(=O)Cn2cc(NC(=O)CCOc3ncncc3N)cn2)cc1` [Compound 109] was greater than 50%.
Still for that read-out and setting: in the case of `CN(CCOc1ccc(C(F)(F)F)cn1)C(=O)Cn1cc(NC(=O)CCOc2ccc(Cl)cc2F)cn1` [Compound 94] it was 30 to 50%.
Still for that read-out and setting: the value for `CNc1nccc(OCCC(=O)Nc2cnn(CC(=O)N(C)CCOc3ccc(C)cc3)c2)n1` [Compound 106] was greater than 50%; that for `COc1cc(NS(=O)(=O)CC(=O)Nc2cnn(CC(=O)N(C)CCOc3ccc(C)cc3)c2)ccn1` [Compound 285, 2-(4-(2-(N-(2-methoxypyridin-4-yl)sulfamoyl)acetamido)-1H-pyrazol-1-yl)-N-methyl-N-(2-(p-tolyloxy)ethyl)acetamide] was less than 30%; that for `Cc1ccc(OCCN(C)C(=O)Cn2cc(NC(=O)CCOc3c(F)cc(C)cc3F)cn2)cc1` [Compound 116] was greater than 50%.
For `[2H]C([2H])([2H])c1ccc(OCCN(C)C(=O)Cn2cc(NC(=O)CCNc3ccnc(F)n3)cn2)cc1` [Compound 222], under setting [1], the activation at 10 µM was greater than 50%.
Turning to `Cc1ccc(OCCN(C)C(=O)Cn2cc(NC(=O)CCOc3c(C)ccnc3C)cn2)cc1` [Compound 14], the activation at 10 µM under setting [1] was 30 to 50%.
On the same count and under the same terms, the value for `Cc1nnc(OCCN(C)C(=O)Cn2cc(NC(=O)CCNc3ccc(F)nc3C)cn2)s1` [Compound 247] was less than 30%; that for `Cc1ccc(OCCN(C)C(=O)Cn2cc(NC(=O)CCOc3cccc(CO)c3)cn2)cc1` [Compound 61] was greater than 50%.
Still for that read-out and setting: the value for `COc1cc(NCCC(=O)Nc2cnn(CC(=O)N(C)CCOc3ccc(C)cc3)c2)ccn1` [Compound 120] was greater than 50%; that for `Cc1ccc(OCCC(=O)Nc2cnn(CC(=O)N(C)CCOc3ccc(F)cc3)c2)c(F)c1` [Compound 75] was less than 30%.
The same measure, in the same setting: the value for `Cc1ccc(OCCN(C)C(=O)Cn2cc(NC(=O)CCNc3ncc(Cl)cc3F)cn2)cc1` [Compound 140] was greater than 50%; that for `Cc1ccc(OCCN(C)C(=O)Cn2cc(NC(=O)CCOc3ccccc3OC(F)(F)F)cn2)cc1` [Compound 54] was 30 to 50%; that for `COc1cc(OCCN(C)C(=O)Cn2cc(NC(=O)CCNc3ncccn3)cn2)ccc1C` [Compound 283] was less than 30%.
For the molecule `Cc1ccc(OCCN(C)C(=O)Cn2cc(NC(=O)CCNc3cc(N)ccn3)cn2)cc1` [Compound 202], the activation at 10 µM under setting [1] was greater than 50%.
The same measure, in the same setting: in the case of `Cc1ccc(OCCC(=O)Nc2cnn(CC(=O)N(C)CCOc3cccc(OC(F)(F)F)c3)c2)c(F)c1` [Compound 69] it was less than 30%; in that of `CN(CCOc1ccc(C(F)(F)F)cc1)C(=O)Cn1cc(NC(=O)CCOc2ccncc2F)cn1` [Compound 19], 30 to 50%; in that of `CCc1ccc(OCCN(C)C(=O)Cn2cc(NC(=O)CCOc3ccccc3)cn2)cc1` [Compound 26], greater than 50%.
The same measure, in the same setting: the value for `Cc1ccc(OCCN(C)C(=O)Cn2cc(NC(=O)CC(C)(C)Nc3ccnc(F)n3)cn2)cc1` [Compound 217, 3-((2-fluoropyrimidin-4-yl)amino)-3-methyl-N-(1-(2-(methyl(2-(p-tolyloxy)ethyl)amino)-2-oxoethyl)-1H-pyrazol-4-yl)butanamide] was less than 30%; that for `Cc1ccc(OCCN(C)C(=O)Cn2cc(NC(=O)CCNc3ccnc(Cl)c3)cn2)cc1` [Compound 149] was greater than 50%.
On the same count and under the same terms, in the case of `CNC(=O)c1cnc(NCCC(=O)Nc2cnn(CC(=O)N(C)CCOc3ccc(C)cc3)c2)nc1` [Compound 211] it was less than 30%; in that of `Cc1ccc(OCCN(C)C(=O)Cn2cc(NC(=O)CNCc3cccnc3N)cn2)cc1` [Compound 83], less than 30%; in that of `Cc1ccc(OCCN(C)C(=O)Cn2cc(NC(=O)CCOc3c(F)cccc3F)cn2)cc1` [Compound 56], greater than 50%.
As to `COc1ccc(OCCN(C)C(=O)Cn2cc(NC(=O)CCOc3ccnc(F)c3)cn2)cc1` [Compound 96], the activation at 10 µM under setting [1] was less than 30%.
Same read-out and setting: in the case of `Cc1ccc(OCCN(C)C(=O)Cn2cc(NC(=O)[C@@H](C)CNc3ccc(F)nc3C)cn2)cc1` [Compound 220] it was 30 to 50%; in that of `Cc1nc(F)ccc1NCCC(=O)Nc1cnn(CC(=O)N(C)CCOc2cnn(C)c2)c1` [Compound 238, 3-[(6-fluoro-2-methyl-3-pyridyl)amino]-N-[1-[2-[methyl-[2-(1-methylpyrazol-4-yl)oxyethyl]amino]-2-oxo-ethyl]pyrazol-4-yl]propanamide], less than 30%.
Regarding `Cc1ccc(OCCC(=O)Nc2cnn(CC(=O)N(C)CCOc3ccc(F)c(Cl)c3)c2)c(F)c1` [Compound 72], the activation at 10 µM under setting [1] is less than 30%.
The same measure, in the same setting: in the case of `Cc1ccc(OCCN(C)C(=O)Cn2cc(NC(=O)[C@H](C)CNc3ccnc(F)n3)cn2)cc1` [Compound 225] it was 30 to 50%.
With `Cc1ccc(OCCN(C)C(=O)Cn2cc(NC(=O)C(O)CNc3ncc(F)cn3)cn2)cc1` (stereo not shown) [Compound 163], the activation at 10 µM under setting [1] is less than 30%.
Same read-out and setting: the value for `Cc1ccc(OCCC(=O)Nc2cnn(CC(=O)N(C)CCOc3ccc(F)c(OC(F)(F)F)c3)c2)c(F)c1` [Compound 78] was less than 30%; that for `Cc1ccc(OCCN(C)C(=O)Cn2cc(NC(=O)CCNc3cc(C#N)ccn3)cn2)cc1` [Compound 137] was less than 30%.
Take `Cc1ccc(OCCN(C)C(=O)Cn2cc(NC(=O)CCOc3cncnc3N)cn2)cc1` [Compound 117]: under setting [1], the activation at 10 µM is less than 30%.
Same read-out and setting: the value for `Cc1ccc(OCCN(C)C(=O)Cn2cc(NC(=O)CCOc3ccc(C)cc3F)cn2)cc1` [Compound 39] was 30 to 50%.
Same read-out and setting: the value for `Cc1ccc(OCCN(C)C(=O)Cn2cc(NC(=O)CCNc3cncnc3C(C)C)cn2)cc1` [Compound 257] was less than 30%; that for `Cc1ccc(OCCN(C)C(=O)Cn2cc(NC(=O)CCOc3ccncc3[N+](=O)[O-])cn2)cc1` [Compound 111] was less than 30%.
